# Active and inactive are the calls of the source.
# Tests used:
# [1] = target: T1, Replicative DNA helicase DnaB (Mycobacterium tuberculosis, UniProt P9WMR3); experiment: DnaB intein splicing inhibitors, dose response, biochemical, cell-free fluorescence (AID 449749); format: functional
# T1 sequence (P9WMR3 whole entry): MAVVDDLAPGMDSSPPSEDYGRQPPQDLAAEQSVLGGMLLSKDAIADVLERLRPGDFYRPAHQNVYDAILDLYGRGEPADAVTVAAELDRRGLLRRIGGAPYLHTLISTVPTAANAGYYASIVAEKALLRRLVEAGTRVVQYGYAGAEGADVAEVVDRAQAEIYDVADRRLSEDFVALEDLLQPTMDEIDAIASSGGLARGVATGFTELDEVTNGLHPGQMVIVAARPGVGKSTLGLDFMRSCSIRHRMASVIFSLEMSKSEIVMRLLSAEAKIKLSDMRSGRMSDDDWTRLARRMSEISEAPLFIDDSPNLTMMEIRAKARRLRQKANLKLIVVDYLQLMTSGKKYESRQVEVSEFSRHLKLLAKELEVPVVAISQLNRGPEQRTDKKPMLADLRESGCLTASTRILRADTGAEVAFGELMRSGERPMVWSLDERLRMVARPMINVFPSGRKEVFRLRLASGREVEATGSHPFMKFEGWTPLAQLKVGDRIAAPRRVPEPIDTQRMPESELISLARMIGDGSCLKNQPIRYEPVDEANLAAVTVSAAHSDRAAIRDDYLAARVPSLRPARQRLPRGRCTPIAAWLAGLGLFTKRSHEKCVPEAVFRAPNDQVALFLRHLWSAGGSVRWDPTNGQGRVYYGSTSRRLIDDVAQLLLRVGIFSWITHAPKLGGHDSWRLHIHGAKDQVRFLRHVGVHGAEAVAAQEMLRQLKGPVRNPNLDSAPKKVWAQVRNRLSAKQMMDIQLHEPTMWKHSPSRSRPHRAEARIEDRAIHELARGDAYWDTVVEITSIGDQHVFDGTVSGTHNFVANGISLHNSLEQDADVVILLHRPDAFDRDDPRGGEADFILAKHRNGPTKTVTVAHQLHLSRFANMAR
# Protein RecA = target: T2, Protein RecA (Mycobacterium tuberculosis, UniProt P9WHJ3); experiment: Fluorescence Cell-Free Homogeneous Dose Retest to Identify Inhibitors of RecA-Intein Splicing Activity. [Related pubchem assays (depositor defined):AID2097, AID2223, AID489010, AID492950]; format: functional
# T2 sequence (P9WHJ3 whole entry): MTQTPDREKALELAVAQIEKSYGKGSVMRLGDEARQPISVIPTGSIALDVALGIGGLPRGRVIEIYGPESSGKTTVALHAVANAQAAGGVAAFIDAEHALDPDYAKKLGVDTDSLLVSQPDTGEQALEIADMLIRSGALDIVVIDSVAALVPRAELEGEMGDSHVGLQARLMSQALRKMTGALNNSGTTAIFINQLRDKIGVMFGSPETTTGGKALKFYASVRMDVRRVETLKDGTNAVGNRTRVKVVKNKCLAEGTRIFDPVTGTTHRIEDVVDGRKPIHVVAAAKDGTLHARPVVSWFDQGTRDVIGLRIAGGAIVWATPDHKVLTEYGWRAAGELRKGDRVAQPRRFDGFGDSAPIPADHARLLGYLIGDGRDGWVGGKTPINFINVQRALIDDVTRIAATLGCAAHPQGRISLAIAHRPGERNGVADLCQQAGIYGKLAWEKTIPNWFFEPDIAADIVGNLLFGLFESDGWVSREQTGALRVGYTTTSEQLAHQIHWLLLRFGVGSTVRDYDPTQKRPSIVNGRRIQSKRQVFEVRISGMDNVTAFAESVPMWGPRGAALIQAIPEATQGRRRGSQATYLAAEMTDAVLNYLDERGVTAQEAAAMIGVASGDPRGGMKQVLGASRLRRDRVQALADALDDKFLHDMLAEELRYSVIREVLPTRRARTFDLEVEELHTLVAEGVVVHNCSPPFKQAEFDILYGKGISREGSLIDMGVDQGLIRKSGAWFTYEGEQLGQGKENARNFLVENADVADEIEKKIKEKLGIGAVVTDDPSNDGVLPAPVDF
# Cytochrome P450 2C19 = Cytochrome P450 2C19 (Homo sapiens, UniProt P33261); experiment: Cytochrome panel assay with activity outcomes. Panel member name: p450-cyp2c19 Compounds with AC50 equal or less than 10 uM are considered active; format: functional; conditions: read-out: AC50
# Sequence of Cytochrome P450 2C19 (P33261 whole entry): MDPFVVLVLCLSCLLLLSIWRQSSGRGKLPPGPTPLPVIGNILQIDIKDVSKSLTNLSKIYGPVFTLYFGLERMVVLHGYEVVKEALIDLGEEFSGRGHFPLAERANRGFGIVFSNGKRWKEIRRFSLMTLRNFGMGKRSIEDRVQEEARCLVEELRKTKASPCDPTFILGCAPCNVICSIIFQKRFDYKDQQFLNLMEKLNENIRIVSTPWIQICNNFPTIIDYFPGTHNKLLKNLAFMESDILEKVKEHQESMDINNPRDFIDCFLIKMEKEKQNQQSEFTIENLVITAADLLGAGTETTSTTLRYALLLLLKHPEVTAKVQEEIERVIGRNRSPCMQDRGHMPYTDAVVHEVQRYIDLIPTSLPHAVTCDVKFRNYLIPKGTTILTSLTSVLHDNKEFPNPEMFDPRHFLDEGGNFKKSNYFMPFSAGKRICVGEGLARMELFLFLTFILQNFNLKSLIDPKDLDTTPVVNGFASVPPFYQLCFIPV
# Cytochrome P450 2D6 = Cytochrome P450 2D6 (Homo sapiens, UniProt P10635);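 note: CYP2D6 member of a cytochrome P450 panel assay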
# Sequence of Cytochrome P450 2D6 (P10635 whole entry): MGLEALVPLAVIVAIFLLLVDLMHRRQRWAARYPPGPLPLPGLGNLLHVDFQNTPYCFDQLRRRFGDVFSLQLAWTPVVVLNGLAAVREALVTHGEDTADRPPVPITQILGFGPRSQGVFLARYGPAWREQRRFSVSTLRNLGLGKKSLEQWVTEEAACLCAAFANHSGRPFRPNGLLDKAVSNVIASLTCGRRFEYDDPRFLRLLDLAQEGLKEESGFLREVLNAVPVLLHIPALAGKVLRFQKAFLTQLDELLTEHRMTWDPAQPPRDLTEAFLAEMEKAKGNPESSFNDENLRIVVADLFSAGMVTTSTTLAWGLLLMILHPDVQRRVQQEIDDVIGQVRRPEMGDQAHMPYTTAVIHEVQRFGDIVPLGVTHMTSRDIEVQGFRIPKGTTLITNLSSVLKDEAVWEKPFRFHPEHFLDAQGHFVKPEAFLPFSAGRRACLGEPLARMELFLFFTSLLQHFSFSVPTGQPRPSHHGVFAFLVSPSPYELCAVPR
# [2] = target: T3, Heat shock factor protein 1 (Mus musculus, UniProt P38532); experiment: HSF1 potentiators in luciferase reporter cells, confirmation, cell-based, NIH3T3, luminescence, dose retest (AID 435004); format: functional;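 note: stress induced by proteasome inhibitor MG132 added 30 min after compound; luciferase reporter driven by HSF1 response element in NIH3T3 cells; actives raise luminescence as potentiators of the MG132 stress response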
# T3 sequence (P38532 whole entry): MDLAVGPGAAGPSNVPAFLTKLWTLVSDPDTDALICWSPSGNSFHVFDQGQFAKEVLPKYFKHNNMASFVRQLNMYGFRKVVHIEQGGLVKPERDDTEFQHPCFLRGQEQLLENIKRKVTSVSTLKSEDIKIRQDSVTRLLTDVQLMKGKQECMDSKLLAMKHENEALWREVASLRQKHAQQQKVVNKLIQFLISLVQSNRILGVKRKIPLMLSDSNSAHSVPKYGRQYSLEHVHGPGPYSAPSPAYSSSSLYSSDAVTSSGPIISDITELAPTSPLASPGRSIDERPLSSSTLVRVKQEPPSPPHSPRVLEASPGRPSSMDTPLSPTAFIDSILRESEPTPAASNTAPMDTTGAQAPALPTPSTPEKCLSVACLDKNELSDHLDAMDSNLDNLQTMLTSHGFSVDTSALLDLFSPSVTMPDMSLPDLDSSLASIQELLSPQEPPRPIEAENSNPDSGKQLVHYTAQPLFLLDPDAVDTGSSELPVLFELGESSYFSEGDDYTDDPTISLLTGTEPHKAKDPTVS
# [3] = target: T4, Polyadenylate-binding protein 1 (Homo sapiens, UniProt P11940); experiment: PABP1 MLLE–PAM2 interaction inhibitors, dose response, miRNA deadenylation inhibitor project, biochemical, fluorescence polarization, Cy5-PAM2 peptide, secondary (AID 602260); format: functional; conditions: read-out: IC50_Mean
# T4 sequence (P11940 whole entry): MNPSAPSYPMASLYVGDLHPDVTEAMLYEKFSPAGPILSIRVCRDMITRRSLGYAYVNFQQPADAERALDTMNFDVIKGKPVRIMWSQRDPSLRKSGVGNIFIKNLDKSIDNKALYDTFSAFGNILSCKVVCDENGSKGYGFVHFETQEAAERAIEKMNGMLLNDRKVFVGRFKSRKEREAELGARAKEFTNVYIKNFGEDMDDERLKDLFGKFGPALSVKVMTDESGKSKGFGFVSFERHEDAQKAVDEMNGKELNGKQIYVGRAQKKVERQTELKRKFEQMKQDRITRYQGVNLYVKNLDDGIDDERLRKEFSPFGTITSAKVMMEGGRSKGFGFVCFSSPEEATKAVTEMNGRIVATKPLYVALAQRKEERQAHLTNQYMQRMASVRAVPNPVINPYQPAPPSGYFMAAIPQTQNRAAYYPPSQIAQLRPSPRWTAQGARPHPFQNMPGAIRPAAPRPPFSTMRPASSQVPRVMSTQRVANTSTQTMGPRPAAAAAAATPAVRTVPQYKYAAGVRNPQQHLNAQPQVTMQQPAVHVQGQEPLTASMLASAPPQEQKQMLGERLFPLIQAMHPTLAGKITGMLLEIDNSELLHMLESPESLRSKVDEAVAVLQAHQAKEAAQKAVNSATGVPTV
# [4] = target: T4, Polyadenylate-binding protein 1; experiment: PABP1 MLLE–PAM2 binding inhibitor potency, dose response, biochemical, fluorescence polarization, FITC-PAM2 peptide (AID 602259); format: functional; conditions: read-out: IC50_Mean
# [5] = HEp-2 cell cytotoxicity, dose response, cytotoxicity control for RSV inhibitor project, HTS (AID 2410); format: functional; conditions: human respiratory syncytial virus
# [6] = target: T5, Corticotropin-releasing factor receptor 2/Corticotropin-releasing factor-binding protein (Homo sapiens, UniProt P24387+Q13324); experiment: Dose Response confirmation of uHTS hits for small molecule antagonists of the CRF-binding protein and CRF-R2 receptor complex.; format: functional; conditions: read-out: IC50_Mean
# T5 sequence (Q13324 whole entry): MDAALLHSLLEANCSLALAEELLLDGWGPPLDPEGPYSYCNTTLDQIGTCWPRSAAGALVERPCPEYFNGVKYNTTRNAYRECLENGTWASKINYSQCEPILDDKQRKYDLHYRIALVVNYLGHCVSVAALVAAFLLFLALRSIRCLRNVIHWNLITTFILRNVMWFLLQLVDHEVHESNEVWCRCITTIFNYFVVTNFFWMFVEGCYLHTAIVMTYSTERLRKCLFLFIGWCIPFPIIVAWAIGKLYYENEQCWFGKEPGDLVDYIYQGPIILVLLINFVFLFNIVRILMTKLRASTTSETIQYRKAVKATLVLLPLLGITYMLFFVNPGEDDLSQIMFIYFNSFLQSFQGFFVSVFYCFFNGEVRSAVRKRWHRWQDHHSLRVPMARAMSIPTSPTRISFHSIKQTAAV
# T5 sequence (P24387 whole entry): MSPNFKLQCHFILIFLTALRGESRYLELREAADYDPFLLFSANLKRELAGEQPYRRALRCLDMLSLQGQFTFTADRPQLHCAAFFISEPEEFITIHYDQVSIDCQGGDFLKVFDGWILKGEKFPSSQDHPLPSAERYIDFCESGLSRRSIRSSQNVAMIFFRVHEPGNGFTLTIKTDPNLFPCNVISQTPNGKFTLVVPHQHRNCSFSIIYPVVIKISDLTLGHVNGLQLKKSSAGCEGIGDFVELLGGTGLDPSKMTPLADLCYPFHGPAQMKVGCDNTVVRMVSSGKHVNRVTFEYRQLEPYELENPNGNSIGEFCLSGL
# [7] = target: T5, Corticotropin-releasing factor receptor 2/Corticotropin-releasing factor-binding protein; experiment: activators of CRF receptor 2 with binding protein – uHTS hits, confirmation (AID 602473); format: functional; conditions: read-out: EC50_Mean
# [8] = inhibitors of intracellular T. cruzi replication, confirmation, NIH3T3 host cells, beta-gal luminescence (AID 2044); format: functional, cell-based;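 note: intracellular parasites grown in NIH/3T3 mouse fibroblasts as host cells; luminescent beta-galactosidase reporter signal from transgenic T. cruzi replicating inside host cells; inhibitors lower the luminescence signal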
# [9] = cytotoxicity toward NIH3T3 fibroblasts, dose response, counter-screen, cell-based, ATP luminescence, mouse fibroblasts (AID 2010); format: functional;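 note: cells exposed to compound for about 90 hours before reading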
# INS1 = experiment: beta cell apoptosis inhibitors, cytokine rescue, dose response, luminescence, retest (AID 449756); format: functional, cell-based; conditions: Rattus norvegicus;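 note: cell death triggered by IL-1 beta plus TNF-alpha plus IFN-gamma mixture; protective hits raise ATP signal compared with cytokine alone wells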
smiles,measurement,setting,value
COC(=O)COc1ccc(C(c2c(C)n[nH]c2O)c2c(C)n[nH]c2O)cc1,AC50,[1],0.347 µM (active)
same,EC50,Protein RecA,0.377 µM (active)
COc1ccc(C(=O)c2ccccc2)c(O)c1 [OXYBENZONE],AC50,Cytochrome P450 2C19,0.398 µM (inconclusive)
same,AC50,Cytochrome P450 2D6,12.6 µM (inconclusive)
CCOC(=O)Cn1nnnc1C(C(C)C)N(Cc1cc2c(C)cc(C)cc2[nH]c1=O)C1CCCC1 (stereo not given),EC50,[2],36.9 µM (active)
Cn1c(SCc2nc3ccccc3n2CCO)nc2ccccc21,AC50,Cytochrome P450 2D6,20 µM (inconclusive)
CCc1nc(N2CCN(S(=O)(=O)c3ccc(Br)cc3)CC2)c2c(C)c(C)sc2n1,EC50,[2],> 260 µM (inactive)
COc1ccc(C(C(=O)NCC2CCCO2)N(C(=O)Cn2nnc3ccccc32)c2ccc(NC(C)=O)cc2)cc1OC (stereo not given),EC50,[2],> 260 µM (inactive)
CSc1ccc(C(c2c(C)n[nH]c2O)c2c(C)n[nH]c2O)cc1,AC50,[1],0.432 µM (active)
same,EC50,Protein RecA,0.241 µM (active)
CCOc1cccc(=O)c2c(C)oc(C)c12,IC50,[3],37.3 µM (inactive)
same,IC50,[4],41.6 µM (inactive)
CC(C)c1ccc(/C=C/C(=O)n2nnc3ccccc32)cc1,CC50,[5],25.1 µM (active)
same,EC50,[2],14.2 µM (active)
COc1cccc(C(=O)N2CCCC(CCC(=O)NCc3ccc(F)c(F)c3)C2)c1 (stereo not given),IC50,[6],> 47.1 µM (inactive)
same,EC50,[7],> 53 µM (inactive)
O=[N+]([O-])c1cc(/C=N/c2cccc3c(O)cccc23)ccc1Cl,AC50,[1],46.8 µM (active)
same,EC50,Protein RecA,8.76 µM (active)
COCCNc1ncnc2ccc(-c3ccccc3C(F)(F)F)cc12,AC50,Cytochrome P450 2D6,39.8 µM (inconclusive)
Cc1n[nH]c2c1C1(CCC3(CC1)OCCO3)C(C#N)=C(N)O2,AC50,[1],> 380 µM (inactive)
same,EC50,Protein RecA,> 380 µM (inactive)
CCC(C)(C)n1nnnc1CN(Cc1ccco1)Cc1cc2cc3c(cc2nc1O)OCO3,IC50,[3],> 66 µM (inactive)
same,IC50,[4],> 66 µM (inactive)
CSc1ccccc1N=C(S)Nc1ccc(S(N)(=O)=O)cc1,IC50,[3],> 66 µM (inactive)
same,IC50,[4],> 66 µM (inactive)
O=C(CSc1nnc(C2COc3ccccc3O2)o1)NC1CCCCC1 (stereo not given),IC50,[6],> 47.1 µM (inactive)
same,EC50,[7],> 53 µM (inactive)
Cc1ccc(O)c(CNc2nccs2)c1,EC50,[2],20.5 µM (active)
Cc1cc[n+](-c2[n-]c(=O)sc2C=NNC(=O)c2ccccc2)cc1,IC50,[3],> 66 µM (inactive)
same,IC50,[4],> 66 µM (inactive)
CN(C)c1ncc2nc(-c3ccc(Cl)cc3)c(=O)n(C[C@H]3CCCO3)c2n1,AC50,Cytochrome P450 2D6,1.58 µM (inconclusive)
CN(c1cccc(NC(=O)CN(c2cccc(Cl)c2)S(=O)(=O)c2ccc(Cl)cc2)c1)S(C)(=O)=O,EC50,[2],> 260 µM (inactive)
Cc1ccc2c(c1)N(C(=O)CSc1nncn1C)C(C)(C)c1ssc(=S)c1-2,AC50,[1],8.82 µM (active)
same,EC50,Protein RecA,10.1 µM (active)
CCOC(=O)CNc1nnc(SCC(=O)OCC)[nH]c1=O,AC50,[1],8.14 µM (active)
same,EC50,Protein RecA,0.845 µM (active)
same,IC50,[3],> 66 µM (inactive)
same,IC50,[4],> 66 µM (inactive)
COc1cccc(-c2nc(NCc3cnc(C)cn3)c3ccccc3n2)c1,AC50,Cytochrome P450 2C19,25.1 µM (inconclusive)
same,AC50,Cytochrome P450 2D6,39.8 µM (inconclusive)
O=S(=O)(NC1c2cccc3cccc(c23)C1N1CCNCC1)c1ccc(Cl)cc1 (stereo not given),EC50,[2],> 260 µM (inactive)
Cc1cc2cc(CN3C(=O)c4ccccc4C3=O)ccc2n1C,EC50,[8],< 0.1 µM (active)
same,EC50,[9],> 60 µM (not active)
same,AC50,INS1,13.3 µM (active)
same,IC50,[3],> 66 µM (inactive)
same,IC50,[4],55.2 µM (inactive)
C=CCn1c(SCC(=O)Nc2cc(NC(C)=O)ccc2OC)nnc1-c1cccnc1,EC50,[2],> 260 µM (inactive)
Cc1nonc1C1CCCN1Cc1c[nH]nc1-c1ccc(-c2ccccc2)cc1 (stereo not given),CC50,[5],21.4 µM (active)
same,EC50,[2],35.2 µM (active)
CCC(Sc1nc2cc3c(cc2c(=O)n1Cc1ccco1)OCO3)C(=O)Nc1ccccc1OC (stereo not given),AC50,Cytochrome P450 2D6,5.01 µM (inconclusive)
CC(C)c1cccc2c([Si](C)(C)C)c3c(nc12)-c1cccc(=O)n1C3,AC50,Cytochrome P450 2D6,20 µM (inconclusive)
COC(=O)[C@@]1(Cc2ccccc2)[C@H]2c3cc(C(=O)N(C)C)n(Cc4ccccc4)c3C[C@H]2CN1C(=O)c1ccccc1,AC50,Cytochrome P450 2D6,39.8 µM (inconclusive)
Cn1ccnc1P(=S)(c1nccn1C)N1CCOCC1,IC50,[3],> 66 µM (inactive)
same,IC50,[4],> 66 µM (inactive)
COc1ccc(CNC(=O)CCC(=O)N2CC(C)Oc3ccccc32)cc1 (stereo not given),EC50,[2],> 260 µM (inactive)
